Measurements as given in PubChem BioAssay AID192 (DTP/NCI, 2004).
Where “and” joins values, the source holds several entries; their conditions need not be identical. Equal entries are not always repeated. Inconclusive results and toxic doses are left out.

System: BDF1 mice, B16 melanoma ip, median survival T/C
Assay: NCI In Vivo Anticancer Drug Screen. Data for tumor model B16 Melanoma (intraperitoneal) in B6D2F1 (BDF1) mice
Conditions: endpoint: median survival time, higher = longer survival
Summary of the method: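 Vehicle-treated animals serve as the reference (C); treated animals (T) are scored for survival or tumor size after tumor transplantation.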

[1] = dose: 100.0 mg/kg/injection, schedule: Q01DX009 (ip), vehicle: Klucel (hydroxypropylcellulose) (HPC)
[2] = dose: 200.0 mg/kg/injection, schedule: Q01DX009 (ip), vehicle: Klucel (hydroxypropylcellulose) (HPC)
[3] = dose: 400.0 mg/kg/injection, schedule: Q01DX009 (ip), vehicle: Klucel (hydroxypropylcellulose) (HPC)
[4] = dose: 25.0 mg/kg/injection, schedule: Q01DX009 (ip), vehicle: Klucel (hydroxypropylcellulose) (HPC)
[5] = dose: 50.0 mg/kg/injection, schedule: Q01DX009 (ip), vehicle: Klucel (hydroxypropylcellulose) (HPC)
[6] = dose: 100.0 mg/kg/injection, schedule: Q04DX003 (ip), vehicle: Klucel (hydroxypropylcellulose) (HPC)
[7] = dose: 200.0 mg/kg/injection, schedule: Q04DX003 (ip), vehicle: Klucel (hydroxypropylcellulose) (HPC)
[8] = dose: 400.0 mg/kg/injection, schedule: Q04DX003 (ip), vehicle: Klucel (hydroxypropylcellulose) (HPC)
[9] = dose: 100.0 mg/kg/injection, schedule: Q01DX009 (ip), vehicle: saline with Tween-80
[10] = dose: 100.0 mg/kg/injection, schedule: Q01DX009 (ip), vehicle: saline

Structure (SMILES): CC(=O)c1ccccc1OCC(O)CN1CCN(c2cccc(C(F)(F)F)c2)CC1 (stereo not given)
- T/C (dose: 100.0 mg/kg/injection, schedule: Q04DX003 (ip), vehicle: saline with Tween-80): 102 % of control
- T/C (dose: 200.0 mg/kg/injection, schedule: Q04DX003 (ip), vehicle: saline with Tween-80): 93 % of control
- T/C (dose: 400.0 mg/kg/injection, schedule: Q04DX003 (ip), vehicle: saline with Tween-80): 91 % of control

Structure (SMILES): CC(C)c1ccc(NC(=O)Nc2cc(Cl)ccc2Cl)cc1
- T/C (dose: 4.0 mg/kg/injection, schedule: Q01DX009 (ip), vehicle: gum acacia): 93 % of control
- T/C (dose: 8.0 mg/kg/injection, schedule: Q01DX009 (ip), vehicle: gum acacia): 90 % of control
- T/C (dose: 16.0 mg/kg/injection, schedule: Q01DX009 (ip), vehicle: gum acacia): 93 % of control

Structure (SMILES): Cc1ccc(NC(=O)Nc2cccc(Cl)c2C)cc1NC(=O)Nc1cccc(Cl)c1C
- T/C (dose: 6.25 mg/kg/injection, schedule: Q01DX009 (ip), vehicle: saline with Tween-80): 94 % of control
- T/C (dose: 12.5 mg/kg/injection, schedule: Q01DX009 (ip), vehicle: saline with Tween-80): 86 % of control
- T/C (dose: 25.0 mg/kg/injection, schedule: Q01DX009 (ip), vehicle: saline with Tween-80): 88 % of control

Structure (SMILES): C=CCNC(=S)Nc1cc(Cl)ccc1OC
- T/C [1]: 93 % of control
- T/C [2]: 93 % of control
- T/C [3]: 93 % of control

Structure (SMILES): O=NN(CCCl)C(=O)Nc1ccc2c3c(cccc13)-c1ccccc1-2
- T/C (dose: 1.56 mg/kg/injection, schedule: Q01DX009 (ip), vehicle: Klucel (hydroxypropylcellulose) (HPC)): 111 % of control
- T/C (dose: 3.12 mg/kg/injection, schedule: Q01DX009 (ip), vehicle: Klucel (hydroxypropylcellulose) (HPC)): 124 % of control
- T/C [4]: 158 % of control and 175 % of control
- T/C [5]: 170 % of control
- T/C [1]: 150 % of control
- T/C [2]: 150 % of control

Structure (SMILES): O=C1NC(=S)S/C1=C\c1ccc(Cl)c(Cl)c1
- T/C [1]: 88 % of control
- T/C [6]: 88 % of control
- T/C [2]: 97 % of control
- T/C [7]: 93 % of control
- T/C [3]: 97 % of control
- T/C [8]: 88 % of control

Structure (SMILES): C#CC(C)(O)c1ccccc1 (stereo not given)
- T/C [5]: 100 % of control
- T/C [1]: 100 % of control
- T/C [2]: 103 % of control

Structure (SMILES): C=CCC(OC(=O)c1ccc(Br)cc1)C1(C)OC1C(C)C1CC(O)(C(OC)OC)NC(=O)O1 (stereo not given)
- T/C (dose: 0.25 mg/kg/injection, schedule: Q01DX009 (ip), vehicle: saline + alcohol): 100 % of control
- T/C (dose: 0.5 mg/kg/injection, schedule: Q01DX009 (ip), vehicle: saline + alcohol): 103 % of control
- T/C (dose: 1.0 mg/kg/injection, schedule: Q01DX009 (ip), vehicle: saline + alcohol): 93 % of control
- T/C (dose: 2.0 mg/kg/injection, schedule: Q01DX009 (ip), vehicle: saline + alcohol): 98 % of control
- T/C (dose: 4.0 mg/kg/injection, schedule: Q01DX009 (ip), vehicle: saline + alcohol): 90 % of control

Structure (SMILES): CCCCN(CCCC)CC(O)c1ccnc2cc3c(cc12)OCO3 (stereo not given)
- T/C (dose: 25.0 mg/kg/injection, schedule: Q04DX003 (ip), vehicle: Klucel (hydroxypropylcellulose) (HPC)): 94 % of control
- T/C (dose: 50.0 mg/kg/injection, schedule: Q04DX003 (ip), vehicle: Klucel (hydroxypropylcellulose) (HPC)): 89 % of control
- T/C [6]: 89 % of control

Structure (SMILES): CC1(C)N=C(N)N=C(N)N1c1ccc(CNC(=O)Nc2ccc(S(=O)(=O)F)cc2)cc1
- T/C (dose: 50.0 mg/kg/injection, schedule: Q04DX003 (ip), vehicle: saline): 112 % of control

Structure (SMILES): Cc1c([N+](=O)[O-])cc2c(c1[N+](=O)[O-])C(C)(C)CC2(C)C
- T/C [9]: 95 % of control
- T/C (dose: 200.0 mg/kg/injection, schedule: Q01DX009 (ip), vehicle: saline with Tween-80): 86 % of control
- T/C (dose: 400.0 mg/kg/injection, schedule: Q01DX009 (ip), vehicle: saline with Tween-80): 90 % of control

Structure (SMILES): CCOC(=O)c1cnc(SC)nc1Sc1ccc(Cl)cc1
- T/C [6]: 100 % of control
- T/C [7]: 99 % of control
- T/C [8]: 89 % of control

Structure (SMILES): Cc1cccc(C2NC(=O)c3ccccc3N2)c1 (stereo not given)
- T/C [1]: 109 % of control
- T/C [2]: 112 % of control
- T/C [3]: 115 % of control

Structure (SMILES): O=C(O)c1ccc(S(=O)(=O)N(Cl)Cl)cc1
- T/C [10]: 110 % of control
- T/C (dose: 200.0 mg/kg/injection, schedule: Q01DX009 (ip), vehicle: saline): 113 % of control
- T/C (dose: 400.0 mg/kg/injection, schedule: Q01DX009 (ip), vehicle: saline): 104 % of control

Structure (SMILES): NC(=S)SCCC(=O)O
- T/C [1]: 96 % of control
- T/C [2]: 86 % of control

Structure (SMILES): ClC1CCC[N-]C1.ClC1CCC[N-]C1.[Cl][Pt+2][Cl] (stereo not given)
- T/C (dose: 0.78 mg/kg/injection, schedule: Q01DX009 (ip), vehicle: saline): 100 % of control
- T/C (dose: 1.56 mg/kg/injection, schedule: Q01DX009 (ip), vehicle: saline): 95 % of control
- T/C (dose: 3.13 mg/kg/injection, schedule: Q01DX009 (ip), vehicle: saline): 96 % of control
- T/C (dose: 6.25 mg/kg/injection, schedule: Q01DX009 (ip), vehicle: saline): 100 % of control
- T/C (dose: 12.5 mg/kg/injection, schedule: Q01DX009 (ip), vehicle: saline): 95 % of control

Structure (SMILES): O=[N+]([O-])c1cccc([N+](=O)[O-])c1Cl
- T/C (dose: 10.0 mg/kg/injection, schedule: Q01DX009 (ip), vehicle: saline with Tween-80): 99 % of control
- T/C (dose: 20.0 mg/kg/injection, schedule: Q01DX009 (ip), vehicle: saline with Tween-80): 94 % of control
- T/C (dose: 40.0 mg/kg/injection, schedule: Q01DX009 (ip), vehicle: saline with Tween-80): 95 % of control
- T/C (dose: 80.0 mg/kg/injection, schedule: Q01DX009 (ip), vehicle: saline with Tween-80): 93 % of control
- T/C (dose: 160.0 mg/kg/injection, schedule: Q01DX009 (ip), vehicle: saline with Tween-80): 91 % of control

Structure (SMILES): C=C1C(=O)OC2C1CCC(=C)C1CC(O)C(=C)C12 (stereo not given)
- T/C (dose: 67.0 mg/kg/injection, schedule: Q01DX009 (ip), vehicle: saline with Tween-80): 87 % of control
- T/C [9]: 87 % of control

Structure (SMILES): O=[n+]1ccn2cc3ccccc3cc2c1
- T/C (dose: 3.75 mg/kg/injection, schedule: Q01DX009 (ip), vehicle: saline): 102 % of control
- T/C (dose: 7.5 mg/kg/injection, schedule: Q01DX009 (ip), vehicle: saline): 105 % of control

Structure (SMILES): O=C(N/N=C\c1ccc(N(CCCl)CCCl)cc1)c1cccnc1
- T/C (dose: 100.0 mg/kg/injection, schedule: Q01DX009 (ip), vehicle: gum acacia): 91 % of control
- T/C (dose: 200.0 mg/kg/injection, schedule: Q01DX009 (ip), vehicle: gum acacia): 102 % of control
- T/C (dose: 400.0 mg/kg/injection, schedule: Q01DX009 (ip), vehicle: gum acacia): 102 % of control

Structure (SMILES): CCCCCCCCOc1ccc(C(=O)c2ccccc2)c(O)c1
- T/C (dose: 6.0 mg/kg/injection, schedule: Q01DX009 (ip), vehicle: Klucel (hydroxypropylcellulose) (HPC)): 92 % of control
- T/C [6]: 91 % of control
- T/C [7]: 93 % of control

Structure (SMILES): CCOC(=O)C1(C)OCCO1
- T/C (dose: 100.0 mg/kg/injection, schedule: Q04DX003 (ip), vehicle: saline): 95 % of control
- T/C (dose: 200.0 mg/kg/injection, schedule: Q04DX003 (ip), vehicle: saline): 104 % of control
- T/C (dose: 400.0 mg/kg/injection, schedule: Q04DX003 (ip), vehicle: saline): 104 % of control

Structure (SMILES): COc1ccc2[nH]c3ccc4cc[n+](CCN5CCC(C6CCN(CC[n+]7ccc8ccc9[nH]c%10ccc(OC)cc%10c9c8c7)CC6)CC5)cc4c3c2c1
- T/C (dose: 12.5 mg/kg/injection, schedule: Q01DX009 (ip), vehicle: Klucel (hydroxypropylcellulose) (HPC)): 150 % of control
- T/C [4]: 194 % of control
- T/C [5]: 180 % of control
- T/C [1]: 100 % of control

Structure (SMILES): CC1=C2C(=O)c3ccccc3C2=C(C)S(=O)(=O)O1
- T/C (dose: 50.0 mg/kg/injection, schedule: Q01DX009 (ip), vehicle: carboxymethylcellulose (CMC)): 99 % of control
- T/C (dose: 100.0 mg/kg/injection, schedule: Q01DX009 (ip), vehicle: carboxymethylcellulose (CMC)): 87 % of control

Structure (SMILES): CN(C)N=Nc1cccc(C(N)=O)c1
- T/C (dose: 5.0 mg/kg/injection, schedule: Q01DX009 (ip), vehicle: Klucel (hydroxypropylcellulose) (HPC)): 103 % of control and 121 % of control
- T/C (dose: 10.0 mg/kg/injection, schedule: Q01DX009 (ip), vehicle: Klucel (hydroxypropylcellulose) (HPC)): 106 % of control and 113 % of control
- T/C (dose: 20.0 mg/kg/injection, schedule: Q01DX009 (ip), vehicle: Klucel (hydroxypropylcellulose) (HPC)): 111 % of control and 123 % of control
- T/C (dose: 80.0 mg/kg/injection, schedule: Q01DX009 (ip), vehicle: Klucel (hydroxypropylcellulose) (HPC)): 101 % of control and 118 % of control
- T/C [10]: 46 % of control
- T/C (dose: 160.0 mg/kg/injection, schedule: Q01DX009 (ip), vehicle: Klucel (hydroxypropylcellulose) (HPC)): 113 % of control
